Some test systems named below: MCF7 breast; SK-OV-3 ovarian; T-47D breast; UO-31 renal; IGROV1 ovarian; NCI-H226 lung; SF-295 CNS; HOP-92 NSCLC; HS 578T breast; SNB-19 CNS.
Holding throughout (assay): NCI tumour cell line growth inhibition, 48 h

Each structure is given as a SMILES string.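 1) Cells in 96-well plates. 2) Compound, 48 h, 5 concentrations. 3) Linear interpolation between surrounding doses. 4) Unreached endpoint = highest concentration. Abbreviation: GI50, concentration required for 50% inhibition of growth. Definition used: TGI = concentration required for complete inhibition of growth.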

Regarding `O=C1OC(O)[C@@H]2[C@H]1[C@H]1CC[C@@H]2O1` (stereo partly specified), the GI50 in the assay with MCF7 breast was more than 100 µM; in the assay with SK-OV-3 ovarian, more than 100 µM; in the assay with T-47D breast it was 15.2 µM; in the assay with UO-31 renal, 66.6 µM; in the assay on IGROV1 ovarian it was more than 100 µM; in the assay on NCI-H226 lung it was more than 79.4 µM. The GI50 with SF-295 CNS was more than 100 µM; in the assay on HOP-92 NSCLC, 20.3 µM; with HS 578T breast, more than 100 µM; in the assay with SNB-19 CNS, more than 100 µM. Further, the TGI was more than 100 µM in the assay on MCF7 breast; more than 100 µM in the assay with SK-OV-3 ovarian; 42.6 µM in the assay with T-47D breast; more than 100 µM with UO-31 renal; more than 100 µM with IGROV1 ovarian; more than 100 µM with NCI-H226 lung. In addition, the TGI in the assay on SF-295 CNS is more than 100 µM; in the assay with HOP-92 NSCLC, more than 69.9 µM; with HS 578T breast, more than 100 µM; with SNB-19 CNS, more than 100 µM.

As to `Cc1cc(/C=C/c2ccc3cc(N(C)C)ccc3[n+]2C)c(C)n1-c1ccccc1`, the GI50 in the assay with MCF7 breast is 0.169 µM; in the assay on SK-OV-3 ovarian, 0.142 µM; in the assay on T-47D breast, 0.0635 µM; in the assay on UO-31 renal it was 0.748 µM; in the assay with IGROV1 ovarian it was 0.3 µM; with NCI-H226 lung, 0.117 µM. Also, the GI50 with SF-295 CNS was 0.11 µM; in the assay with HOP-92 NSCLC, 0.193 µM; in the assay on HS 578T breast it was 0.361 µM; with SNB-19 CNS, 0.161 µM. Also, the TGI in the assay on MCF7 breast was 3.37 µM; in the assay on SK-OV-3 ovarian it was 1 µM; in the assay with T-47D breast, 1.15 µM; in the assay on UO-31 renal, 4.3 µM; with IGROV1 ovarian, 3.92 µM; in the assay with NCI-H226 lung, 0.74 µM. The TGI in the assay with SF-295 CNS came out at 0.409 µM; with HOP-92 NSCLC, 1.33 µM; in the assay with HS 578T breast, 9.56 µM; in the assay with SNB-19 CNS it was 5.97 µM.

In the case of `N=Nc1c(OC(=O)Nc2cccc(Cl)c2)[nH]c2ccccc12`, the TGI is 23.5 µM in the assay with MCF7 breast; 21.2 µM in the assay on SK-OV-3 ovarian; 7.34 µM with T-47D breast; 13.1 µM with UO-31 renal; 21.4 µM in the assay with IGROV1 ovarian; 34.5 µM with NCI-H226 lung. In addition, the TGI worked out at 5.99 µM in the assay on SF-295 CNS, 18.1 µM with HOP-92 NSCLC, 40 µM in the assay on HS 578T breast and 18.5 µM with SNB-19 CNS.

For `COc1c(Cl)c(=O)oc2ccc(Cl)cc12`, the TGI in the assay with MCF7 breast, in the assay on SK-OV-3 ovarian, in the assay on T-47D breast, with UO-31 renal, in the assay on IGROV1 ovarian and with NCI-H226 lung was more than 100 µM each time. The TGI in the assay with SF-295 CNS, with HOP-92 NSCLC, in the assay on HS 578T breast and in the assay with SNB-19 CNS was more than 100 µM in each case.

Consider `CN1CCN(CCCn2c(=O)c3sc4ncccc4c3n3nnc(-c4ccccc4)c23)CC1`, for which the GI50 in the assay with MCF7 breast is 7.69 µM; with SK-OV-3 ovarian, 8.88 µM; in the assay with T-47D breast it was 7.99 µM; with UO-31 renal it was 5.1 µM; in the assay with IGROV1 ovarian, 5.93 µM; in the assay on NCI-H226 lung, 7.4 µM. In addition, the GI50 is 5.63 µM in the assay on SF-295 CNS, 5.8 µM in the assay on HOP-92 NSCLC, 6.47 µM in the assay on HS 578T breast and 8.41 µM in the assay on SNB-19 CNS. Moreover, the TGI in the assay on MCF7 breast was 15 µM; in the assay on SK-OV-3 ovarian, 15.9 µM; with T-47D breast, 15.8 µM; with UO-31 renal, 12 µM; in the assay with IGROV1 ovarian it was 13.8 µM; in the assay with NCI-H226 lung, 15.3 µM. Besides, the TGI in the assay on SF-295 CNS was found to be 12.4 µM; in the assay with HOP-92 NSCLC, 12.9 µM; in the assay with HS 578T breast, 16 µM; with SNB-19 CNS it was 15.8 µM.

Turning to `Nc1ncnc2n[nH]c(Nc3ccc(F)cc3)c12`, the GI50 in the assay on MCF7 breast was 27.7 µM; in the assay with SK-OV-3 ovarian, 6.93 µM; with T-47D breast, 21.1 µM; in the assay on UO-31 renal, 5.93 µM; in the assay on IGROV1 ovarian, 4.73 µM; with NCI-H226 lung it was 51 µM. The GI50 in the assay with SF-295 CNS was more than 100 µM; in the assay with HOP-92 NSCLC it was 12 µM; with HS 578T breast, 20.6 µM; with SNB-19 CNS, 61.7 µM. Moreover, the TGI is 89.3 µM with MCF7 breast; more than 100 µM in the assay with SK-OV-3 ovarian; more than 100 µM in the assay on T-47D breast; more than 100 µM with UO-31 renal; 32.1 µM in the assay on IGROV1 ovarian; more than 100 µM in the assay on NCI-H226 lung. Besides, the TGI in the assay on SF-295 CNS is more than 100 µM; in the assay with HOP-92 NSCLC it was 87.4 µM; in the assay on HS 578T breast, more than 100 µM; with SNB-19 CNS, more than 100 µM.

For `Cc1cccc(NC(=O)Cn2cnc3sc(C(=O)OC(C)C)c(C)c3c2=O)c1`, the GI50 with MCF7 breast is 38.2 µM; in the assay on SK-OV-3 ovarian, 26.8 µM; with T-47D breast, more than 50 µM; in the assay with UO-31 renal it was more than 50 µM; in the assay on IGROV1 ovarian, 16.3 µM; in the assay with SF-295 CNS it was more than 50 µM. The GI50 in the assay with HOP-92 NSCLC was more than 50 µM; in the assay with HS 578T breast, 16.5 µM; in the assay on SNB-19 CNS, 14.1 µM. Besides, the TGI in the assay on MCF7 breast, in the assay on SK-OV-3 ovarian, with T-47D breast, with UO-31 renal, with IGROV1 ovarian and in the assay with SF-295 CNS was more than 50 µM in each case. Moreover, the TGI in the assay on HOP-92 NSCLC was more than 50 µM; with HS 578T breast it was more than 50 µM; in the assay on SNB-19 CNS, 38.6 µM.

`O=[N+]([O-])C(/C=C(\Cl)n1nnc2ccccc21)=C(/Cl)n1nnc2ccccc21`: the TGI with SK-OV-3 ovarian, in the assay on T-47D breast, with UO-31 renal, in the assay with IGROV1 ovarian, in the assay on NCI-H226 lung and in the assay on SF-295 CNS was more than 100 µM in each case. For the same compound, the TGI in the assay on HOP-92 NSCLC, in the assay on HS 578T breast and in the assay with SNB-19 CNS was more than 100 µM throughout.

`Cc1ccc(S(=O)(=O)Nc2ccccc2C(=O)c2ccc(C)c(C)c2)cc1`: the TGI in the assay on MCF7 breast, in the assay on SK-OV-3 ovarian, in the assay with T-47D breast, with UO-31 renal, in the assay with IGROV1 ovarian and with NCI-H226 lung was more than 100 µM in each case. For the same compound, the TGI in the assay on SF-295 CNS, with HS 578T breast and in the assay with SNB-19 CNS was more than 100 µM in each case.
